From ChEMBL document CHEMBL1135698, “Synthesis, antitumor activity, molecular modeling, and DNA binding properties of a new series of imidazonaphthalimides” (J Med Chem, 2002) come the findings set out here.

Format in all cases: functional, cell-based
One assay concerns HT-29. In words: In vitro concentration required to reduce cell number to 50% in human colon carcinoma (HT-29) culture.
Another assay concerns HeLa. In words: In vitro concentration required to reduce cell number to 50% in human cervical carcinoma (HeLa) culture.
Another assay deals with PC-3. In words: In vitro concentration required to reduce cell number to 50% in human postrate carcinoma (PC-3) culture.

One may read the IC50 as the concentration needed to halve the response being measured.

In the case of `Cc1nc2cc3c4c(cccc4c2[nH]1)C(=O)N(CCCN(C)CCCN1C(=O)c2cccc4c2c(cc2nc(C)[nH]c24)C1=O)C3=O`, the IC50 in the assay with HT-29 was above 100 µM; in the assay on HeLa, above 100 µM; with PC-3, 36.3 µM.

As for `Cc1nc2cc3c4c(cccc4c2[nH]1)C(=O)N(CCN(C)CCCN(C)CCN1C(=O)c2cccc4c2c(cc2nc(C)[nH]c24)C1=O)C3=O`, the IC50 in the assay on HT-29 came to 0.32 µM; with HeLa, 0.8 µM; with PC-3, 3.22 µM.

Take `Cc1nc2c(cc3c4c(cccc42)C(=O)N(CCN2CCCC2)C3=O)[nH]1`: the IC50 with HT-29 was 3.11 µM; with HeLa it was 6.09 µM; with PC-3, 4.22 µM.

As to `Cc1nc2c(cc3c4c(cccc42)C(=O)N(CCNCCNCCN2C(=O)c4cccc5c4c(cc4nc(C)[nH]c45)C2=O)C3=O)[nH]1`, the results for the IC50 in the assay with HT-29, in the assay with HeLa and in the assay on PC-3 were 1.08 µM, 3.49 µM and above 100 µM, respectively.

Regarding `Cc1nc2cc3c4c(cccc4c2[nH]1)C(=O)N(CCN(C)C)C3=O`, the IC50 with HT-29 came out at 0.94 µM; with HeLa it was 2.35 µM; in the assay with PC-3, 10.4 µM.

As for `Cc1nc2cc3c4c(cccc4c2[nH]1)C(=O)N(CCN(C)CCN1C(=O)c2cccc4c2c(cc2nc(C)[nH]c24)C1=O)C3=O`, the IC50 in the assay with HT-29 was 17.5 µM; in the assay on HeLa it was 4.45 µM; in the assay on PC-3, above 100 µM.

Consider `Cc1nc2c(cc3c4c(cccc42)C(=O)N(CCNCCCNCCN2C(=O)c4cccc5c4c(cc4nc(C)[nH]c45)C2=O)C3=O)[nH]1`, for which the IC50 in the assay with HT-29 was 8.5 µM; in the assay with HeLa it was 8.26 µM; in the assay with PC-3, above 100 µM.

Turning to `Cc1nc2cc3c4c(cccc4c2[nH]1)C(=O)N(CCN(C)CCN(C)CCN1C(=O)c2cccc4c2c(cc2nc(C)[nH]c24)C1=O)C3=O`, the IC50 with HT-29 is 3.83 µM; in the assay with HeLa, 8.62 µM; with PC-3, above 100 µM.

With `Cc1nc2c(cc3c4c(cccc42)C(=O)N(CCCNCCNCCCN2C(=O)c4cccc5c4c(cc4nc(C)[nH]c45)C2=O)C3=O)[nH]1`, the half-inhibitory concentration (IC50) in the assay with HT-29 is 15 µM; in the assay on HeLa, 8.75 µM; in the assay with PC-3, 744 µM.

With `CN(C)CCN1C(=O)c2cccc3cc(N)cc(c23)C1=O` [AMONAFIDE], the IC50 in the assay with HT-29 was found to be 4.67 µM; in the assay on HeLa, 2.73 µM; in the assay on PC-3, 6.38 µM.

As to `O=C1c2cccc3cccc(c23)C(=O)N1CCNCCCNCCN1C(=O)c2cccc3cccc(c23)C1=O` [ELINAFIDE], the IC50 in the assay with HT-29 was 0.017 µM; in the assay with HeLa, 0.07 µM; in the assay with PC-3, 0.32 µM.
